In the METLIN SMRT retention time set (Domingo-Almenara et al. 2019) one finds RP-LC retention time data, which are given here for 80 compounds.

The nature of this data set: gradient 5% acetonitrile 3 min, to 50% in 2 min, to 85% in 15 min, held 3 min, 100 µL/min. Particulars: column: Zorbax Extend-C18 2.1 x 50 mm; eluents: water / acetonitrile, 0.1% formic acid. The procedure, abridged: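 In both positive and negative ionization mode, a quadrupole time-of-flight mass spectrometer coupled to HPLC analyzed pure standards run in mixtures of ~100 molecules. The Zorbax Extend-C18 column (2.1 × 50 mm, 1.8 μm) was operated at 100 μL/min with water and acetonitrile, each containing 0.1% formic acid. The dead volume was 40 μL and the dwell volume 900 μL. Retention time came from adduct peaks that were computationally picked and individually inspected by hand.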
In turn, `O=C1C(=O)N(Cc2ccc(C(=O)N3CCCCC3)cc2)CCN1Cc1ccc(F)cc1` gave an RP-LC retention time of 735 s.

With `O=C(C1CC(=O)N(c2cccc(-c3noc(C4CCC4)n3)c2)C1)N1CCN(c2ccccc2)CC1` (stereo not given), the RP-LC retention time was determined as 1010 s.

`COc1ccc(OC)c(CNC(=O)C2CCCN2S(=O)(=O)c2cc3c(cc2C)NC(=O)CO3)c1` (stereo not given) registered an RP-LC retention time of 730 s.

In turn, `Cc1sc(NC(=O)c2ccccc2)c(CN(C)C)c1C` showed an RP-LC retention time of 625 s.

In turn, `COC(=O)c1c(-c2ccccc2)noc1NCc1ccccc1OC` registered an RP-LC retention time of 1100 s.

`Cc1nn(-c2ccccc2)c2nc(N3CCCC(C(=O)Nc4cccc(Br)c4)C3)sc12` (stereo not given) showed an RP-LC retention time of 1300 s.

Take `CCOc1ccc(N(C)C(=O)Cn2cccc2-c2nnc(C3CC3)o2)cc1`: the RP-LC retention time stood at 888 s.

The compound `NC(=O)c1ccc(I)c([N+](=O)[O-])c1` came in with an RP-LC retention time of 745 s.

`Cc1cc(C)n(-c2ccnc(N3CCC(C(=O)NCC(C)C)CC3)n2)n1`: the RP-LC retention time was 768 s.

In the case of `Cc1cc2nc(N3CCOCC3)n(CC(=O)Nc3ccc(N(C)C)cc3)c(=O)c2n1C`, the RP-LC retention time was 623 s.

For the compound `Cc1ccc(CNC(=O)Cn2c(N3CCCC3)nc(C)cc2=O)cc1`, the RP-LC retention time was determined as 618 s.

For `CCNc1cc(N2CCC(CCC(=O)NCc3c(C)nn(C)c3C)CC2)ncn1`, the RP-LC retention time worked out at 575 s.

In turn, `CCC(=O)N(CC)c1nc(-c2ccc(Br)cc2)cs1` yielded an RP-LC retention time of 1250 s.

In turn, `COCCCNC(=O)C(C)n1c(=O)c(C(F)(F)F)nc2cc(C)c(C)cc21` (stereo not given) displayed an RP-LC retention time of 1010 s.

Turning to `O=C(NC1CCCCCC1)C1CCCN(S(=O)(=O)c2c[nH]c(C(=O)N3CCCCCC3)c2)C1` (stereo not given), the RP-LC retention time is 926 s.

`Nc1nc2c(C(F)(F)F)cccc2s1`: the RP-LC retention time is 720 s.

In the case of `Nc1cc(C2CCN(S(=O)(=O)c3cccc(Br)c3)CC2)no1`, the RP-LC retention time was 824 s.

Compound `O=C(CCSc1nnnn1-c1ccccc1)Nc1ccc2c(c1)OCO2` yielded an RP-LC retention time of 794 s.

In turn, `COc1cc(C)c(Cl)cc1S(=O)(=O)Nc1ccc(-c2cn3ccc(C)nc3n2)cc1` registered an RP-LC retention time of 700 s.

`COc1cc(OC)cc(C(=O)N2CCC3(C2)C(=O)Nc2ccccc23)c1` (stereo not given) showed an RP-LC retention time of 707 s.

Take `Cc1ccc(N2CCN(Cc3nc(-c4ccc(N5CCOCC5)nc4)no3)CC2)cc1`: the RP-LC retention time was determined as 791 s.

In the case of `COc1cc([C@@H]2c3cc4c(cc3[C@H](O)[C@@H](CO)[C@@H]2C(=O)NCCCN(C)C)OCO4)cc(OC)c1OC`, the RP-LC retention time was 596 s.

Regarding `CN1CCn2cc(S(=O)(=O)Nc3ccc(C#N)cc3)cc2C1=O`, the RP-LC retention time stood at 662 s.

In turn, `Cc1nn(C)c(C)c1S(=O)(=O)N1CCC(n2c(C)cnc2-c2ccccc2)C1` (stereo not given) displayed an RP-LC retention time of 618 s.

`O=C(Cc1ccccc1F)NC1CCN(c2cc(-c3ccccc3)[nH]n2)C1` (stereo not given) showed an RP-LC retention time of 688 s.

Turning to `CN(c1nc(-c2ccc(Cl)cc2)nc2ccccc12)C1CCCCC1`, the RP-LC retention time amounted to 941 s.

`CCOc1ccccc1-c1noc(Cn2c(=O)n(-c3cccc(C)c3)c(=O)c3sccc32)n1`: the RP-LC retention time worked out at 1010 s.

For the compound `CC(C)NC(=O)c1n[nH]c2c1CCCCCC2`, the RP-LC retention time worked out at 754 s.

Turning to `CCn1nc(N2CCCC(NC(=O)Cn3c(=O)oc4ccccc43)C2)ccc1=O` (stereo not given), the RP-LC retention time came to 707 s.

Take `Cc1nc(-c2noc(-c3cccc(F)c3)n2)cn1CC(=O)Nc1ccccc1`: the RP-LC retention time worked out at 856 s.

In turn, `Cn1cccc(C(=O)NC2CC(=O)N(C3CC3)C2)c1=O` (stereo not given) gave an RP-LC retention time of 547 s.

The compound `COc1ccc(Cl)cc1C(=O)NCCOc1ccc(F)cc1` displayed an RP-LC retention time of 925 s.

For the compound `Cc1ccc2c(c1)c1ncn(Cc3nc(C(C)C)no3)c(=O)c1n2CC(=O)N1CCCC1`, the RP-LC retention time was 818 s.

`CCc1onc(C)c1C1CCCN1C(=O)CCc1ccccc1` (stereo not given) had an RP-LC retention time of 846 s.

The compound `Cc1cc(Cl)ccc1S(=O)(=O)N1CCC2(CC1)NCCCN=C2NC1CCCC1` displayed an RP-LC retention time of 810 s.

Consider `Cn1c(=O)n(C)c2cc(S(=O)(=O)C3CCCCC3)c(NC(=O)c3ccccc3F)cc21`, for which the RP-LC retention time worked out at 940 s.

Turning to `COc1cccc(NC(=O)Cn2c(=O)c(CCC(=O)NC3CCCC3)nc3ccccc32)c1`, the RP-LC retention time is 825 s.

`CC1(C(=O)NCc2ccccc2)CCN(S(=O)(=O)c2ccc(Br)cc2)CC1` returned an RP-LC retention time of 961 s.

As for `O=C(Nc1cccc(C(F)(F)F)c1)NC1(c2nc(C3CC3)no2)CCCCC1`, the RP-LC retention time is 1030 s.

`O=C([C@@H]1C[C@H](F)CN1S(=O)(=O)c1ccc(F)cc1)N1CCCCC1`: the RP-LC retention time worked out at 784 s.

`COc1cccc(S(=O)(=O)N2CCC3(CC2)CC(OC)CCO3)c1` (stereo not given) gave an RP-LC retention time of 865 s.

`Nn1nnc2ccccc21` yielded an RP-LC retention time of 651 s.

Regarding `Cc1ccc(N(Cc2ccccc2)S(=O)(=O)c2ccc3nnc(C)n3c2)cc1`, the RP-LC retention time is 884 s.

Take `COc1ccc(-c2nc3ccc(Br)cn3c2Nc2ccccc2C)cc1`: the RP-LC retention time came out at 830 s.

As for `Cc1ccc(Cn2c(=O)c(N3CCCC(C(=O)NCc4cccs4)C3)nc3ccccc32)cc1` (stereo not given), the RP-LC retention time turned out to be 1170 s.

The compound `CN(C)c1cccc(-c2nc(-c3ccc(S(=O)(=O)N4CCCC4)cc3)no2)c1` had an RP-LC retention time of 1250 s.

`Cc1nn(CC(=O)N2CCCC(C)C2)c(=O)c2nc(-c3ccccc3)sc12` (stereo not given) returned an RP-LC retention time of 875 s.

For `O=C1CC(c2noc(C3CCC3)n2)CN1c1ccccc1` (stereo not given), the RP-LC retention time worked out at 869 s.

`Cc1ccc(-c2nc(-c3ccc4oc(C)nc4c3)no2)c(C)c1` gave an RP-LC retention time of 1310 s.

As to `COc1ccc(C2CC(=O)Nc3c(C(=O)O)cn(-c4ccc(F)cc4)c32)cc1OC` (stereo not given), the RP-LC retention time is 734 s.

`Cc1oc(C2CCN(C(=O)Cn3cnc4c3c(=O)n(C)c(=O)n4C)CC2)nc1C(=O)N1CCCC1` showed an RP-LC retention time of 619 s.

Consider `COc1ccc(NC(=O)C2c3cc(OC)c(OC)cc3C(=O)N3CCc4ccccc4C23)cc1OC` (stereo not given), for which the RP-LC retention time came out at 744 s.

For the compound `Cc1oc(-c2[nH]ncc2C(=O)N(C)C)cc1S(=O)(=O)Nc1cccc(F)c1`, the RP-LC retention time is 668 s.

`O=C(Nc1cccn2cnnc12)c1cccc(C(F)(F)F)c1` had an RP-LC retention time of 738 s.

The compound `O=C(Cn1cccc1-c1nnc(C2CCC2)o1)NCc1ccc(Cl)cc1` returned an RP-LC retention time of 907 s.

`COC[C@@H]1OCCN(S(=O)(=O)c2cn(C)cn2)[C@H]1c1ccccc1` registered an RP-LC retention time of 686 s.

`COc1cccc(CNS(=O)(=O)c2ccccc2-c2nc(-c3cccc(F)c3)no2)c1` returned an RP-LC retention time of 1150 s.

Regarding `Cc1ccc(-n2c(=O)c3c(cc(C)n3C)n(CC(=O)Nc3cc(C)ccc3C)c2=O)cc1`, the RP-LC retention time was 906 s.

The compound `O=C(Nc1ccccc1)N(Cc1nnc2n1CCCCC2)c1ccc2c(c1)OCO2` gave an RP-LC retention time of 703 s.

Consider `CCc1ccc2nc(C)cc(C(=O)NC(C)C)c2c1`, for which the RP-LC retention time came to 621 s.

Turning to `Cc1cc2[nH]c(C(=O)Nc3ccc(F)cc3Cl)c(CN3CCOCC3)c2s1`, the RP-LC retention time worked out at 721 s.

The compound `O=c1n(Cc2cccc(F)c2)nc2c(S(=O)(=O)N3CCc4ccccc4C3)cccn12` displayed an RP-LC retention time of 938 s.

In turn, `Cc1nnc(NC(=O)CN2CCN(c3ccccc3F)C2=O)s1` displayed an RP-LC retention time of 626 s.

The compound `Cc1cccc(-c2nc(-c3cccc(-c4ccn[nH]4)c3)no2)c1` came in with an RP-LC retention time of 1100 s.

Take `CNC(=O)[C@@H]1CN(C(=O)c2cc(C)no2)C[C@H]1COC`: the RP-LC retention time came to 558 s.

In turn, `Cn1cnc2cc(CNC(=O)CCc3ccccc3)ccc21` displayed an RP-LC retention time of 604 s.

Regarding `COCCN(Cc1ccc(F)cc1)Cc1cc(=O)c2cc(Cl)ccc2[nH]1`, the RP-LC retention time amounted to 880 s.

`CC(C)CCNS(=O)(=O)c1ccc(-c2cc(C(F)(F)F)on2)o1` showed an RP-LC retention time of 1090 s.

Compound `Cc1oc(-c2[nH]ncc2C(=O)N(C)C)cc1S(=O)(=O)NCc1ccccc1Cl` came in with an RP-LC retention time of 693 s.

`CCN1CCCn2cc(S(=O)(=O)NCc3ccccc3Cl)cc2C1=O` registered an RP-LC retention time of 750 s.

Consider `O=C(NCc1ccccc1F)C1CCCN(c2nnc3ccc(Cl)cn23)C1` (stereo not given), for which the RP-LC retention time was determined as 756 s.

`CC(=O)Nc1ccc(C2(C(=O)NCc3ccccc3C)CCC2)cc1`: the RP-LC retention time amounted to 791 s.

Consider `O=C(Cn1cnc2nc(N3CCC(C(=O)NC4CC4)CC3)sc2c1=O)NCC1CCCO1` (stereo not given), for which the RP-LC retention time was found to be 589 s.

Consider `N#Cc1ccc(C(=O)Nc2nnc(CSc3ccccc3)o2)cc1`, for which the RP-LC retention time worked out at 749 s.

For `N#CCSc1nnc2ccc3ccccc3n12`, the RP-LC retention time came out at 639 s.

In turn, `CNC(=O)c1ccc(N2CCCN(Cc3ccccc3C)C2=O)cc1` returned an RP-LC retention time of 700 s.

In turn, `CC(=O)N1c2ccc(S(=O)(=O)N3CCCCC3)cc2CC1C(=O)NCCc1ccc(C)cc1` (stereo not given) came in with an RP-LC retention time of 941 s.

`Cc1ccccc1-c1noc(Cn2ccn(-c3ccc(Cl)cc3)c(=O)c2=O)n1` showed an RP-LC retention time of 918 s.

As for `COc1ccc(NC(=O)C2CCCN(c3cnc4nccnc4c3)C2)cc1` (stereo not given), the RP-LC retention time worked out at 698 s.

For the compound `COc1ccc(-c2nc3c4ccccc4ncn3n2)cc1`, the RP-LC retention time turned out to be 924 s.
